Experimental data as given in patent US9676771B2, “Compounds for inhibiting drug-resistant strains of HIV-1 integrase” (priority 2013, dated 2017).
Where two headings read alike, the source gives them in different places.

Assays:
[1] = system: HIV-1 constructs containing mutant IN T66I; assay: Single-round HIV-1 infectivity assay, IN mutant T66I; type: cell-based; conditions: Human immunodeficiency virus 1; Table 8; read-out: EC50 (nM, IN mutants) T66I
Protocol: (§1) Single-Round HIV-1 Infectivity Assay.
(§2) Human embryonyl kidney cell culture cell line 293 was acquired from the American type Culture Collection (ATCC).
(§3) […]. […] The virus-containing supernatants were then harvested, clarified by low-speed centrifugation, filtrated, and diluted for preparation in infection assays. […] After compound incorporation and activation in the cell, 100 μL of virus-stock diluted to achieve a maximum luciferase signal between 0.2 and 1.5 RLUs was added to each well and further incubated at 37° C. for 48 hrs. […] Activity was normalized to infectivity in the absence of target compounds. KaleidaGraph (Synergy Software, Reading, Pa.) was used to perform regression analysis on the data. EC50 values were determined from the fit model.
(§4) pNLNgoMIVR^−ΔEnv.LUC has been described previously (Zhao et al. 2008). The integrase codon reading frame was removed from pNLNgoMIVR^−ΔEnv LUC (between KpnI and SalI sites) and placed between the KpnI and SalI sites of pBluescript II KS+. Using that construct as the wild-type template, we prepared the following HIV-1 Integrase-resistant mutants via the QuikChange II XL (Stratagene, La Jolla, Calif.) site-directed mutagenesis protocol: H51Y, T66I, E92Q, G118R, Y143R, Q148H, Q148K, N155H, R263K, G140S+Q148H, G140A+Q148K, E138K+Q148K, and H51Y+R263K. The following sense with cognate antisense (not shown) oligonucleotides (Integrated DNA Technologies, Coralville, Iowa) were used in the mutagenesis: H51Y, 5′-[…]-3; T66I, 5′-[…]-3′; E92Q, 5′-[…]-3′; G118R, 5′-[…]-3′; E138K, 5′-[…]-3; G140A, 5′-[…]-3; G140S, 5′-[…]-3′; Y143R, 5′-[…]-3′; Q148H, 5′-[…]-3′; Q148K, 5′-[…]-3; N155H, 5′-[…]-3′; R263K 5′-[…]-3′. The double mutation G140S+Q148H was constructed by using the previously generated Q148H mutant and the appropriate oligonucleotide for the 2nd mutation, G140S. The double mutation G140A+Q148K was made by using the Q148K mutant and the appropriate oligonucleotide for the 2nd mutation, G140A. The double mutation E138K+Q148K was made by using the Q148K mutant and the appropriate oligonucleotide for the 2nd mutation, E138K. The double mutation H51Y+R263K was constructed by using the previously generated H51Y mutant and the appropriate oligonucleotides for the 2nd mutation, R263K. The DNA sequence of each construct was verified independently by DNA sequence determination. The mutant integrase coding sequences from pBluescript II KS+ were then subcloned into pNLNgoMIVR^−ΔEnv LUC (between the KpnI and SalI sites) to produce the full-length mutant HIV-1 Integrase constructs. These DNA sequences were additionally checked independently by DNA sequence determination.

[2] = system: HIV-1 constructs containing mutant IN E92Q; assay: Single-round HIV-1 infectivity assay, IN mutant E92Q; type: cell-based; conditions: Human immunodeficiency virus 1; Table 8; read-out: EC50 (nM, IN mutants) E92Q
Protocol: as §1, §2, §3, §4

[3] = system: HIV-1 constructs containing mutant IN R263K; assay: Single-round HIV-1 infectivity assay, IN mutant R263K; type: cell-based; conditions: Human immunodeficiency virus 1
Protocol: as §1, §2, §3, §4

[4] = target: HIV-1 integrase (Human immunodeficiency virus type 1 group M subtype B, UniProt P12497); assay: biochemical; type: biochemical
How it was run: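 Compounds or DMSO added to 20 nM DNA and 400 nM integrase in 50 mM MOPS pH 7.2, 7.5 mM MgCl2, 14 mM 2-mercaptoethanol; 2 h at 37° C, quenched with formamide/SDS loading buffer. Products resolved on gels, imaged and quantified by densitometry.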

[5] = system: HIV-1 WT IN; assay: High growth serum assays in cells (WT); type: cell-based
[6] = system: HIV-1 constructs containing wild-type IN; assay: microbe, parasite or virus in culture; type: cell-based; conditions: for Si (selectivity index): ratio of CC50 to EC50
[7] = system: HIV-1 constructs containing mutant IN H51Y/R263K; assay: Single-round HIV-1 infectivity assay, IN double mutant H51Y/R263K; type: cell-based; conditions: Human immunodeficiency virus 1; Table 8; read-out: EC50 (nM, IN mutants) H51Y/R263K
Protocol: as §1, §2, §3, §4

[8] = system: HIV-1 constructs containing mutant IN G118R; assay: microbe, parasite or virus in culture; type: cell-based; conditions: Human immunodeficiency virus 1
Protocol: as §1, §2, §3, §4

[9] = in vitro; type: cell-based, human; conditions: human, 50% reduction in the level of ATP in HOS cells
How it was run: (§5)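 Cells exposed to compounds over a concentration range for 48 hrs at 37° C. Viability read as cellular ATP by luciferase (ATPlite) luminescence after lysis, normalised to untreated cells; CC50 derived by regression fit.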

[10] = system: HIV-1 constructs containing mutant IN H51Y; assay: Single-round HIV-1 infectivity assay, IN mutant H51Y; type: cell-based; conditions: Human immunodeficiency virus 1; Table 8; read-out: EC50 (nM, IN mutants) H51Y
Protocol: as §1, §2, §3, §4

[11] = system: HIV-1 constructs containing mutant IN N155H; assay: microbe, parasite or virus in culture; type: cell-based; conditions: Human immunodeficiency virus 1
How it was run: (§6)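 Single-round infectivity assay using luciferase-reporter pNLNgoMIVR−ΔEnv.LUC virus carrying site-directed integrase mutants, produced in 293 cells. Activity normalized to infectivity without compound; EC50 from regression fit.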

[12] = system: HIV-1 constructs containing mutant IN G140S-Q148H; assay: microbe, parasite or virus in culture; type: cell-based; conditions: Human immunodeficiency virus 1
How it was run: as §6

[13] = system: HIV-1 constructs containing mutant IN Y143R; assay: microbe, parasite or virus in culture; type: cell-based; conditions: Human immunodeficiency virus 1
How it was run: as §6

[14] = system: human osteosarcoma (HOS) cells; assay: in vitro; type: cell-based; conditions: Table 3; 50% reduction in the level of ATP in HOS cells
How it was run: as §5

[15] = Table 6, read-out: EC50 (nM, IN Mutants) R263K
[16] = Table 8, read-out: EC50 (nM, IN mutants) R263K
[17] = Table 4, strand transfer, read-out: IC50 (Strand Transfer)
[18] = Human immunodeficiency virus 1, Table 3, WT IN, read-out: EC50 (nM, WT)
[19] = Table 6, read-out: EC50 (nM, IN Mutants) G118R
[20] = Table 8, read-out: EC50 (nM, IN mutants) G118R
[21] = Table 4, 3′-processing, read-out: IC50 (3^+-Processing)
[22] = Table 3, read-out: EC50 (nM, IN Mutants) N155H
[23] = Table 3, G140S-Q148H double mutant, read-out: EC50 (nM, IN Mutants) SH
[24] = Table 3, read-out: EC50 (nM, IN Mutants) Y143R
[25] = Human immunodeficiency virus 1, Table 8, WT IN, read-out: EC50 (nM, WT)
[26] = Table 8, read-out: EC50 (nM, IN mutants) N155H
[27] = Table 8, read-out: EC50 (nM, IN mutants) G140S/Q148H
[28] = Table 8, read-out: EC50 (nM, IN mutants) Y143R

Nc1c(C(=O)NCc2ccc(F)cc2F)c(=O)n(O)c2ncccc12 [XZ384, 4-Amino-N-(2,4-difluorobenzyl)-1-hydroxy-2-oxo-1,2-dihydro-1,8-naphthyridine-3-carboxamide]
EC50 [1]: 0.6 nM
EC50 [2]: 3 nM
EC50 [3, 15]: 6.4 ± 2.3 nM
EC50 [3, 16]: 6.4 nM
IC50 [4, 17]: 0.019 ± 0.002 µM
IC50 ([4]; Table 7, 3′-processing, read-out: IC50 (μM) 3′-P): 2.5 ± 0.3 µM
EC50 ([5]; Human immunodeficiency virus 1, read-out: EC50 (nM), Table 9, 10% FBS): 0.8 ± 0.3 nM
EC50 ([5]; Human immunodeficiency virus 1, read-out: EC50 (nM), Table 9, 15% FBS): 0.5 ± 0.05 nM
EC50 ([6]; Human immunodeficiency virus 1, read-out: EC50 (nM), Table 9, WT, normal 5% serum): 1.1 ± 0.66 nM
EC50 [6, 18]: 1.1 ± 0.66 nM
EC50 [7]: 3.2 nM
EC50 [8, 19]: 16.1 ± 4.6 nM
EC50 [8, 20]: 16.1 nM
CC50 ([9]; Table 3): > 250000 nM
CC50 ([9]; Table 6): > 250000 nM
CC50 ([9]; Table 8): > 250000 nM
EC50 [10]: 1 nM

O=C(NCc1ccc(F)cc1F)c1c(NCCO)c2cccnc2n(O)c1=O [XZ378, N-(2,4-difluorobenzyl)-1-hydroxy-4-((2-hydroxyethyl)amino)-2-oxo-1,2-dihydro-1,8-naphthyridine-3-carboxamide]
EC50 [3, 15]: 26 nM
IC50 [4, 21]: 0.55 ± 0.07 µM
IC50 [4, 17]: 0.01 ± 0.009 µM
EC50 [6, 18]: 5.2 ± 0.6 nM
Si (selectivity index) ([6]; Table 3): 4,519
EC50 [8, 19]: 27.3 ± 1.4 nM
CC50 ([9]; Table 3): 23500 ± 3000 nM
CC50 ([9]; Table 6): 23500 ± 3000 nM
EC50 [11, 22]: 24.6 ± 3.8 nM
EC50 [12, 23]: 43.1 ± 15.3 nM
EC50 [13, 24]: 4.6 ± 1.8 nM

Cc1nnc(C(=O)NC(C)(C)c2nc(C(=O)NCc3ccc(F)cc3)c(O)c(=O)n2C)o1 [RAL, raltegravir, reference compound]
EC50 [1]: 2.8 nM
EC50 [2]: 29.8 nM
EC50 [3, 16]: 5.7 nM
EC50 ([6]; Human immunodeficiency virus 1, Table 6, WT IN, read-out: EC50 (nM, WT)): 4 ± 2 nM
EC50 [7]: 6 ± 2.3 nM
EC50 [8, 20]: 35.5 nM
CC50 ([9]; Table 2): > 100000 nM
CC50 ([9]; Table 6): > 100000 nM
CC50 ([9]; Table 8): > 250000 nM
EC50 [10]: 3.4 nM

Nc1c(C(=O)NCc2ccc(F)cc2F)c(=O)n(O)c2ncc(CCS(=O)(=O)c3ccccc3)cc12 [XZ446, 4-Amino-N-(2,4-difluorobenzyl)-1-hydroxy-2-oxo-6-(2-(phenylsulfonyl)ethyl)-1,2-dihydro-1,8-naphthyridine-3-carboxamide]
EC50 [2]: 1.2 nM
EC50 [3, 16]: 5.3 nM
IC50 ([4]; Table 10, strand transfer, read-out: IC50 (nM, ST)): 0.0037 ± 0.0013 µM
EC50 [6, 25]: 2 ± 0.1 nM
EC50 [8, 20]: 11.4 nM
CC50 ([9]; Table 8): > 250000 nM
EC50 [11, 26]: 2.1 nM
EC50 [12, 27]: 5.2 nM
EC50 [13, 28]: 0.6 nM

O=C(NCc1ccc(F)cc1F)c1c(NCCCCc2ccccc2)c2cccnc2n(O)c1=O [XZ383, N-(2,4-difluorobenzyl)-1-hydroxy-2-oxo-4-((4-phenylbutyl)amino)-1,2-dihydro-1,8-naphthyridine-3-carboxamide]
IC50 [4, 21]: 12.2 ± 2 µM
IC50 [4, 17]: 0.28 ± 0.11 µM
EC50 [6, 18]: 49.9 ± 13 nM
Si (selectivity index) ([6]; Table 3): 2,040
CC50 [14]: 102000 ± 8000 nM
EC50 [11, 22]: 116 ± 21.9 nM
EC50 [12, 23]: 243 ± 38.7 nM
EC50 [13, 24]: 39.9 ± 14.7 nM

COc1cc2c(cc1Cc1cccc(Cl)c1F)c(=O)c(C(=O)O)cn2[C@H](CO)C(C)C [EVG, elvitegravir, reference compound]
EC50 [1]: 66.2 nM
EC50 [2]: 154 nM
EC50 [3, 16]: 10 nM
EC50 [6, 25]: 6.4 ± 0.8 nM
EC50 [7]: 52.6 nM
EC50 [8, 20]: 21 nM
CC50 ([9]; Table 8): > 250000 nM
EC50 [10]: 4.5 nM
EC50 [11, 26]: 90 nM
EC50 [12, 27]: 5700 nM
EC50 [13, 28]: 7.9 nM

CC(=O)OCCCCCc1cnc2c(c1)c(NCCO)c(C(=O)NCc1ccc(F)cc1F)c(=O)n2O [XZ439, 5-(6-((2,4-Difluorobenzyl)carbamoyl)-8-hydroxy-5-((2-hydroxyethyl)amino)-7-oxo-7,8-dihydro-1,8-naphthyridin-3-yl)pentyl acetate]
EC50 [1]: 1.2 nM
EC50 [2]: 3.8 nM
EC50 [3, 16]: 3.6 nM
EC50 [6, 25]: 5.3 nM
EC50 [7]: 15.2 nM
EC50 [8, 20]: 14.5 nM
CC50 ([9]; Table 8): > 250000 nM
EC50 [10]: 7.4 nM
EC50 [11, 26]: 10.3 nM
EC50 [12, 27]: 5.3 nM
EC50 [13, 28]: 4.1 ± 1 nM
